What was measured:
ducksalad = experiment: Test B flooded paddy test; type: in vivo, Heteranthera limosa; details: 500 g ai/ha, Flood; scale of 0 to 100 where 0 is no effect and 100 is complete control
Procedure, shortened: (§1)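 Paddy-water application at a 3 cm flood, young plants having two leaves. Water level maintained; greenhouse, 13–15 days; visual 0–100 control rating.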

pigweed = experiment: Test A pre-/postemergence herbicide test; type: in vivo, Amaranthus retroflexus; details: for Plant response rating, Pigweed: 125 g ai/ha; for Pigweed plant response rating: 500 g ai/ha
Procedure, shortened: (§2)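 Directed soil spray to seeded pots (preemergence) or spray onto one- to two-leaf seedlings 2–10 cm tall (postemergence); loam/sand substrate throughout. Evaluated visually after about 10 days against untreated plants, 0 = no effect, 100 = complete control.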

kochia = experiment: Test A pre-/postemergence herbicide test; type: in vivo, Kochia scoparia; details: for Plant response rating, Kochia: 125 g ai/ha; for Kochia plant response rating: 500 g ai/ha
Procedure, shortened: as §2

giant foxtail = experiment: Test A pre-/postemergence herbicide test; type: in vivo, Setaria faberii
Procedure, shortened: as §2

galium = experiment: Test A postemergence herbicide test; type: in vivo, Galium aparine; details: 125 g ai/ha, visual rating on 0 to 100 scale (0 no effect, 100 complete control), approx. 10 days
Procedure, shortened: (§3)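 Young potted plants in a loam–sand mix, one- to two-leaf stage and 2–10 cm tall, receive the test chemical postemergence and stay in a greenhouse for approximately 10 days. Injury is then judged by eye against untreated plants, scored 0 (none) to 100 (complete control).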

barnyardgrass [1] = experiment: Test B flooded paddy test; type: in vivo, Echinochloa crus-galli; details: 500 g ai/ha, Flood; scale of 0 to 100 where 0 is no effect and 100 is complete control
Procedure, shortened: as §1

rice = experiment: Test B flooded paddy test; type: in vivo, Oryza sativa; details: 500 g ai/ha, Flood; scale of 0 to 100 where 0 is no effect and 100 is complete control
Procedure, shortened: as §1

sedge, umbrella = experiment: Test B flooded paddy test; type: in vivo, Cyperus difformis; details: 500 g ai/ha, Flood; scale of 0 to 100 where 0 is no effect and 100 is complete control
Procedure, shortened: as §1

ragweed = experiment: Test A pre-/postemergence herbicide test; type: in vivo, Ambrosia elatior; details: for Plant response rating, Ragweed: 125 g ai/ha; for Ragweed plant response rating: 500 g ai/ha
Procedure, shortened: as §2

ryegrass, Italian = experiment: Test A pre-/postemergence herbicide test; type: in vivo, Lolium multiflorum; details: for Plant response rating, Ryegrass, Italian: 125 g ai/ha; for Ryegrass, Italian plant response rating: 500 g ai/ha
Procedure, shortened: as §2

wheat = experiment: Test A pre-/postemergence herbicide test; type: in vivo, Triticum aestivum; details: Postemergence, 125 g ai/ha; visual rating on 0 to 100 scale (0 no effect, 100 complete control), approx. 10 days
Procedure, shortened: as §2

corn = experiment: Test A pre-/postemergence herbicide test; type: in vivo, Zea mays; details: Postemergence
Procedure, shortened: as §2

barnyardgrass [2] = experiment: Test A pre-/postemergence herbicide test; type: in vivo, Echinochloa crus-galli
Procedure, shortened: as §2

blackgrass = experiment: Test A postemergence herbicide test; type: in vivo, Alopecurus myosuroides
Procedure, shortened: as §3

[3] = Postemergence, visual rating on 0 to 100 scale (0 no effect, 100 complete control), approx. 10 days
[4] = Preemergence, 0 to 100 scale where 0 is no effect and 100 is complete control
[5] = Preemergence, visual rating on 0 to 100 scale (0 no effect, 100 complete control)
[6] = Postemergence, 125 g ai/ha, visual rating on 0 to 100 scale (0 no effect, 100 complete control), approx. 10 days
[7] = Postemergence, 500 g ai/ha, 0 to 100 scale (0 no effect, 100 complete control)
[8] = Preemergence, 125 g ai/ha, 0 to 100 scale where 0 is no effect and 100 is complete control
[9] = Preemergence, 500 g ai/ha, visual rating on 0 to 100 scale (0 no effect, 100 complete control)
[10] = 125 g ai/ha, visual rating on 0 to 100 scale (0 no effect, 100 complete control), approx. 10 days
[11] = 500 g ai/ha, 0 to 100 scale (0 no effect, 100 complete control)

O=C1NCC(c2ccc(Br)c(Br)c2)C1C(=O)Nc1ccc(F)cc1F (stereo not drawn) [Compound 340]
90: Plant response rating, Foxtail, Giant (giant foxtail; [7]) | Foxtail, Giant plant response rating (giant foxtail; [9])
30: Plant response rating, Foxtail, Giant (giant foxtail; [6]) | Plant response rating, Barnyardgrass (barnyardgrass [2]; [6])
20: Ryegrass, Italian plant response rating (ryegrass, Italian; [5]) | Plant response rating, Blackgrass (blackgrass; [11])
0: Plant response rating, Pigweed (pigweed; [3]) | Plant response rating, Pigweed (pigweed; [4]) | Pigweed plant response rating (pigweed; [5]) | Plant response rating, Kochia (kochia; [3]) | Plant response rating, Kochia (kochia; [4]) | Kochia plant response rating (kochia; [5]) | Plant response rating, Galium (galium) | Plant response rating, Barnyardgrass (barnyardgrass [1]) | Plant response rating, Rice (rice) | Plant response rating, Sedge, Umbrella (sedge, umbrella) | Plant response rating, Ragweed (ragweed; [3]) | Plant response rating, Ragweed (ragweed; [4]) | Ragweed plant response rating (ragweed; [5]) | Plant response rating, Ryegrass, Italian (ryegrass, Italian; [3]) | Plant response rating, Ryegrass, Italian (ryegrass, Italian; [4]) | Plant response rating, Wheat (wheat) | Plant response rating, Corn (corn; [10]) | Plant response rating, Corn (corn; [11]) | Plant response rating, Blackgrass (blackgrass; [10])
60: Plant response rating, Barnyardgrass (barnyardgrass [2]; [8])
50: Plant response rating, Ducksalad (ducksalad) | Plant response rating, Barnyardgrass (barnyardgrass [2]; [7])
80: Plant response rating, Foxtail, Giant (giant foxtail; [8]) | Barnyardgrass plant response rating (barnyardgrass [2]; [9])

O=C1NCC(c2ccc(Br)c(Br)c2)C1C(=O)Nc1ccc(F)c(F)c1F (stereo not drawn) [Compound 342]
90: Foxtail, Giant plant response rating (giant foxtail; [9])
40: Plant response rating, Foxtail, Giant (giant foxtail; [6]) | Plant response rating, Corn (corn; [11])
80: Barnyardgrass plant response rating (barnyardgrass [2]; [9])
70: Plant response rating, Foxtail, Giant (giant foxtail; [8])
20: Plant response rating, Kochia (kochia; [3]) | Ryegrass, Italian plant response rating (ryegrass, Italian; [5])
50: Pigweed plant response rating (pigweed; [5]) | Plant response rating, Foxtail, Giant (giant foxtail; [7]) | Plant response rating, Barnyardgrass (barnyardgrass [2]; [8])
60: Plant response rating, Barnyardgrass (barnyardgrass [2]; [7])
0: Plant response rating, Ducksalad (ducksalad) | Plant response rating, Pigweed (pigweed; [3]) | Plant response rating, Pigweed (pigweed; [4]) | Plant response rating, Kochia (kochia; [4]) | Kochia plant response rating (kochia; [5]) | Plant response rating, Galium (galium) | Plant response rating, Barnyardgrass (barnyardgrass [1]) | Plant response rating, Rice (rice) | Plant response rating, Sedge, Umbrella (sedge, umbrella) | Plant response rating, Ragweed (ragweed; [3]) | Plant response rating, Ragweed (ragweed; [4]) | Ragweed plant response rating (ragweed; [5]) | Plant response rating, Ryegrass, Italian (ryegrass, Italian; [3]) | Plant response rating, Ryegrass, Italian (ryegrass, Italian; [4]) | Plant response rating, Wheat (wheat) | Plant response rating, Corn (corn; [10]) | Plant response rating, Blackgrass (blackgrass; [10]) | Plant response rating, Blackgrass (blackgrass; [11])
30: Plant response rating, Barnyardgrass (barnyardgrass [2]; [6])

O=C1NCC(c2ccc(Br)c(Br)c2)C1C(=O)Nc1ccccc1Cl (stereo not drawn) [Compound 343]
30: Plant response rating, Foxtail, Giant (giant foxtail; [6]) | Plant response rating, Barnyardgrass (barnyardgrass [2]; [7])
0: Plant response rating, Ducksalad (ducksalad) | Plant response rating, Pigweed (pigweed; [3]) | Plant response rating, Pigweed (pigweed; [4]) | Pigweed plant response rating (pigweed; [5]) | Plant response rating, Kochia (kochia; [3]) | Plant response rating, Kochia (kochia; [4]) | Kochia plant response rating (kochia; [5]) | Plant response rating, Galium (galium) | Plant response rating, Barnyardgrass (barnyardgrass [1]) | Plant response rating, Rice (rice) | Plant response rating, Sedge, Umbrella (sedge, umbrella) | Plant response rating, Ragweed (ragweed; [3]) | Plant response rating, Ragweed (ragweed; [4]) | Ragweed plant response rating (ragweed; [5]) | Plant response rating, Ryegrass, Italian (ryegrass, Italian; [3]) | Plant response rating, Ryegrass, Italian (ryegrass, Italian; [4]) | Ryegrass, Italian plant response rating (ryegrass, Italian; [5]) | Plant response rating, Wheat (wheat) | Plant response rating, Corn (corn; [10]) | Plant response rating, Corn (corn; [11]) | Plant response rating, Barnyardgrass (barnyardgrass [2]; [6]) | Plant response rating, Blackgrass (blackgrass; [10]) | Plant response rating, Blackgrass (blackgrass; [11])
20: Plant response rating, Barnyardgrass (barnyardgrass [2]; [8])
80: Foxtail, Giant plant response rating (giant foxtail; [9]) | Barnyardgrass plant response rating (barnyardgrass [2]; [9])
60: Plant response rating, Foxtail, Giant (giant foxtail; [7]) | Plant response rating, Foxtail, Giant (giant foxtail; [8])

Source: patent US10294202B2, “Pyrrolidinones as herbicides” (FMC Corporation, priority 2013, dated 2019)
